Measured values taken from patent US20250208141A1, “FLUORESCENT PROBE FOR LABELING M1 MACROPHAGES, AND M1 MACROPHAGE MONITORING SYSTEM USING SAME” (INSTITUTE FOR BASIC SCIENCE, priority 2022, published 2025).

Tests used:
GLUT = GLUT inhibition test (CDr17 absorption) with cytochalasin B19; type: cell-based, mouse; conditions: inhibitor 0, 0.03, 0.1, 0.3 μM, 30 minutes, M1 macrophage
Experimental: Next, a GLUT inhibition test was performed using cytochalasin B19 which is a general GLUT inhibitor. An inhibitor at various concentrations (0, 0.03, 0.1, 0.3 μM) was cultured for 30 minutes with the M1 macrophage, cells were treated with CDr17, and the fluorescence intensity was analyzed (FIG. 3).

GLUT1 = biological target: T1, GLUT1 (Mus musculus, UniProt P17809); test: GLUT1 blocking with STF-31, then CDr17 fluorescence in M1 macrophages; type: cell-based; conditions: M1 macrophage of RAW264.7; 1 μM CDr17 for 30 minutes
T1 construct: endogenous in cells; host or cells: M1 macrophages of RAW264.7 cells
T1 sequence (P17809 1-492): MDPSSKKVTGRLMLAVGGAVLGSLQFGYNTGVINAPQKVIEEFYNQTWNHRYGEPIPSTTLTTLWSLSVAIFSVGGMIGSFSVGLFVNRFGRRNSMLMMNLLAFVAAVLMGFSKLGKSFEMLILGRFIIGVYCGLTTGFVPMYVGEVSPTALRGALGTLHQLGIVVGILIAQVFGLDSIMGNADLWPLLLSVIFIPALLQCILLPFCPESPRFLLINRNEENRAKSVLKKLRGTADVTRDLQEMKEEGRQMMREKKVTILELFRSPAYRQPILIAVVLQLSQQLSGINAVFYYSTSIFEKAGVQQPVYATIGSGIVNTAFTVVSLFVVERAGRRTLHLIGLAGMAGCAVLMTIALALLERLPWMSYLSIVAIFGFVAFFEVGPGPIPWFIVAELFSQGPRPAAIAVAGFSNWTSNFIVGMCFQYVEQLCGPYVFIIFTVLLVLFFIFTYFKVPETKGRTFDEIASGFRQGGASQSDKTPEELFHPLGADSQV
Experimental: Next, the function of GLUT1 was blocked using STF-3121 which is a selective inhibitor of GLUT1 in the M1 macrophage of RAW264.7, and then a treatment was performed with 1 μM CDr17 for 30 minutes to monitor the inhibition effect.

GLUTs = test: Glucose (D/L-glucose) competition test with CDr17 in M1 macrophages; type: cell-based, mouse; conditions: D/L-glucose 0, 20, 60 mM; CDr17 1 μM; M1 macrophages from RAW264.7
Experimental: In order to analyze a mechanism for selectivity of the compounds (probes) according to the examples, test was performed as follows, using the CDr17 compound of Example 8. First, in order to analyze whether the selectivity of CDr17 is related to GLUTs in cells, a glucose competition test was performed by the following method. As an M1 macrophage medium having no glucose differentiated in RAW264.7 cells, a medium comprising 10% Heat-Inactivated Fetal Bovine Serum (Gibco) and 1% penicillin streptomycin (WELGENE) comprising D/L-glucose at various concentrations (0 (Cont.), 20, 60 mM) were cultured for 5 minutes, and CDr17 (1 μM) was added. The nucleus was stained with Hoechst33342 (1 μg/mL), and the medium was replaced with a fresh medium after 30 minutes. Fluorescence microscopic imaging was performed with Operetta High Throughput screening with a 40× objective lens.

[1] = system: THP-1 M0, M1, M2 macrophages; test: M1 macrophage selectivity by comparison with 2-NBDG in THP-1 macrophages; type: cell-based, human
Description: In order to compare the selectivity of CDr17 for M1 macrophages, 2-NBDG which is a generally used fluorescent probe was applied to THP-1 which is a macrophage cell line of human origin and tested.

With cytochalasin B19 the “effect on absorption of CDr17 through GLUT” value (GLUT) was “blocked dose-dependently absorption of CDr17 through GLUT”.
`CC(C)(C)c1ccc(S(=O)(=O)NCc2ccc(C(=O)Nc3cccnc3)cc2)cc1` [STF-31] was tested, and the “entry of CDr17 into M1 cells” value (GLUT1) was “significantly decreased dependently on the dose”.
With `O=C[C@H](O)[C@@H](O)[C@H](O)[C@H](O)CO` [D-glucose] the “effect on CDr17 fluorescence intensity / absorption by the M1 macrophage” value (GLUTs) was “decreased dose-dependently”.
In the case of `O=C[C@@H](O)[C@H](O)[C@@H](O)[C@@H](O)CO` [L-glucose], the “effect on CDr17 fluorescence intensity / absorption by the M1 macrophage” value (GLUTs) is reported as “did not affect absorption of CDr17”.
With `O=[N+]([O-])c1ccc(N[C@H]2C(O)O[C@H](CO)[C@@H](O)[C@@H]2O)c2nonc12` (stereo partly drawn) [Example 2-NBDG, 2-NBDG] the “ability to distinguish M1 macrophage from M0 and M2 by fluorescence intensity” value ([1]; THP-1, CDr17 0.5 μM, 2-NBDG 1, 5, 10, 50, 100 μM) was “M1 and M2 macrophages were not able to be clearly distinguished at any concentration” and the “concentration needed for observation of fluorescence intensity” value ([1]; THP-1 macrophages) was 100 µM.
